# ChEMBL document CHEMBL5728589, “Inhibitors of RIP1 kinase and methods of use thereof” (2021)
# Several values for one entry are separate records, joined by “and”; a condition that tells them apart may be missing. Equal values may be shown once.
# Biological target: T1, Receptor-interacting serine/threonine-protein kinase 1 (Homo sapiens, UniProt Q13546)
# T1 sequence (Q13546 whole entry): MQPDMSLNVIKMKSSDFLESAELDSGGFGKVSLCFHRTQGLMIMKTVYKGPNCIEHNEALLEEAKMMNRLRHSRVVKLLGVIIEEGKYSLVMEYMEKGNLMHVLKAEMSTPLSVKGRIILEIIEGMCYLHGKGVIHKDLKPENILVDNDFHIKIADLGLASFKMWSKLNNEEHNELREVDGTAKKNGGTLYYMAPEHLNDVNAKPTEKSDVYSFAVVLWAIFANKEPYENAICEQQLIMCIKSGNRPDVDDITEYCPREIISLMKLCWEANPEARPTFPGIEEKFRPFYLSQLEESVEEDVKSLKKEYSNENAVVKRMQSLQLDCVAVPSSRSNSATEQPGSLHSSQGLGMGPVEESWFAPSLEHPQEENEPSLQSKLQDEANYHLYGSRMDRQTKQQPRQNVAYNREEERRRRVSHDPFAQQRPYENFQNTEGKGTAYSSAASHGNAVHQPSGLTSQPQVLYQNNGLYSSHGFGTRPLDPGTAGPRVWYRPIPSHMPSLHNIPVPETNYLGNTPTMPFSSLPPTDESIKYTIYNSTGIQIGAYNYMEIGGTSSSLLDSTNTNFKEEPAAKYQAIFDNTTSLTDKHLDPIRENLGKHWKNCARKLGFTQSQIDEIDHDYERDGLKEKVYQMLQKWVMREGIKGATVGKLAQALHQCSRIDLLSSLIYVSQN
# Assay: Enzyme Assay: The ability of the receptor interacting protein kinase (RIPK1) to catalyze the hydrolysis of adenosine-5′-triphosphate (ATP) is monitored using the Transcreener ADP (adenosine-5′-diphosphate) assay (BellBrook Labs).
compound,measurement,value
CCC(F)(F)[C@H]1CCc2nc(C(=O)N[C@H]3CCc4cc(F)cc(F)c4NC3=O)nn21,Ki,0.021 µM and 0.014 µM
